Measurements taken from patent publication US8895695B2, “Template-fixed beta-hairpin peptidomimetics with CXCR4 antagonizing activity” (priority 2003, dated 2014).
Numbered stars: 1 amine (or outer) side, 2 acyl side, 3 side chain; on linkers, the order of the positions; unused ones are H or OH. Bridge positions count the residues as written; N and C are the ends. Square brackets hold non-standard residues; d marks the D form. Peptide text beside a SMILES is read from it. X2 = CN1CCN(CCCN(CC(=O)[*:2])[*:1])CC1; 2Nal = N[C@@H](Cc1ccc2ccccc2c1)C(=O)O; Gly(N-2-aminoethyl) = NCCNCC(=O)O; Cit = NC(=O)NCCC[C@H](N)C(=O)O

What was measured:
in vitro = details: human
Method: Each peptide concentration was assayed in triplicate. […] Wells were then washed once with PBS and subsequently 100 μl MTT reagent (0.5 mg/mL in medium RPMI1640 and, respectively, DMEM) was added to the wells. This was incubated at 37° C. for 2 hours and subsequently the medium was aspirated and 100 μl isopropanol was added to each well. […] For each concentration averages were calculated from triplicates. The percentage of growth was calculated as follows: (OD595peptide-OD595Tz-OD595Empty well)/(OD595Tz-OD595Empty well)×100% and was plotted for each peptide concentration.
‘CCR5’ cells were cultured in DMEM medium with 4500 mg/ml glucose, 10% fetal bovine serum (FBS), supplemented with 50 U/ml Penicillin and 50 μg/ml Streptomycin (Pen/Strept.). Hut/4-3 cells were maintained in RPMI medium, 10% FBS, supplemented with Pen/Strept. and 10 mM HEPES. HELA cells and CCRF-CEM cells were maintained in RPMI1640 plus 5% FBS, Pen/Strept and 2 mM L-Glutamine. Cos-7 cells were grown in DMEM medium with 4500 mg/ml glucose supplemented with 10% FCS, Pen/Strept. and 2 mM L-Glutamine. All cell lines were grown at 37° C. at 5% CO2.

CXCR4 = CXCR4 (Homo sapiens, UniProt P61073); test: Ca2+-assay method 2 (Flexstation, SDF-1 induced calcium mobilization); type: cell-based; set-up: expressed in transfected cells; host or cells: mouse pre-B cell line 300-19; details: method 2 (Ex. 54-160), mouse pre-B cell line 300-19 with human CXCR4, 10 nM SDF-1; read-out: IC50 (nM) Ca^2+ assay
[1] = tested on: human red blood cells (hRBC); test: Hemolysis; type: cell-based
Outline: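 Percent lysis taken as OD540 of peptide-treated sample over OD540 of the water/0.1% Triton X-100 full-lysis control, with PBS giving 0%. Peptides at 100 μM exposed to PBS-washed human RBCs (20% v/v) for 1 hour at 37° C. before centrifugation and 20-fold dilution of supernatant.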
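Throughout, for GI50: MTT reduction read as absorbance at 595 nm, blank-corrected and expressed as percent growth relative to the time-zero cell reading, triplicate wells per concentration.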

CXCR4, sequence (P61073 whole entry): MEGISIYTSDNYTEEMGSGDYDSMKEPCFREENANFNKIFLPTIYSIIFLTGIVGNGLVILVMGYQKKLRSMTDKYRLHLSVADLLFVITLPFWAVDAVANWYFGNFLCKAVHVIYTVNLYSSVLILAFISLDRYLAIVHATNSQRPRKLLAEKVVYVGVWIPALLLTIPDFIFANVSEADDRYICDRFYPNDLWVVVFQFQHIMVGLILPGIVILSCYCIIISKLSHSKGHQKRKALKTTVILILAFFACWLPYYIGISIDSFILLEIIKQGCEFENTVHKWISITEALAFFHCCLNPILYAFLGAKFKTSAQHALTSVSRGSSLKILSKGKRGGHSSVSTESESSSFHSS

Compound | GI50 at 48 h (in vitro) [nM] | IC50 (CXCR4) [nM] | Hemolysis at 100 μM [1] [%]
N=C(N)NCCC[C@@H]1NC(=O)[C@H](CCCNC(=N)N)NC(=O)[C@H]2CCCN2C(=O)CNC(=O)CN(CCN)C(=O)[C@@H]2CSSC[C@H](NC(=O)[C@H](Cc3ccc4ccccc4c3)NC1=O)C(=O)N[C@@H](Cc1ccc(O)cc1)C(=O)N[C@@H](CCCNC(N)=O)C(=O)N[C@@H](CCCCN)C(=O)N1CCC[C@@H]1C(=O)N1CCC[C@H]1C(=O)N[C@@H](Cc1ccc(O)cc1)C(=O)N[C@@H](CCCNC(=N)N)C(=O)N[C@@H](CCCNC(N)=O)C(=O)N2 [Ex. 138] (cyclo(YR[Cit]C[Gly(N-2-aminoethyl)]G[dP]RR[2Nal]CY[Cit]K[dP]P); disulfide 4-11) | 18000 | 63 | 0
C[C@@H](O)[C@@H]1NC(=O)[C@@H]2CCCN2C(=O)[C@H]2CCCN2C(=O)[C@H](CCCCN)NC(=O)[C@H](CCC(N)=O)NC(=O)[C@H](Cc2ccc(O)cc2)NC(=O)[C@@H]2CSSC[C@H](NC(=O)[C@H](CCCNC(N)=O)NC(=O)[C@H](CCCNC(=N)N)NC1=O)C(=O)N[C@@H](CCCNC(=N)N)C(=O)NCC(=O)N1CCC[C@@H]1C(=O)N[C@@H](CCCNC(=N)N)C(=O)N[C@@H](CCCNC(=N)N)C(=O)N[C@@H](Cc1ccc3ccccc3c1)C(=O)N2 [Ex. 67] (cyclo(TR[Cit]CRG[dP]RR[2Nal]CYQK[dP]P); disulfide 4-11) | 49000 | 2.4 | 0.2
C[C@@H](O)[C@@H]1NC(=O)[C@H](CCCNC(=N)N)NC(=O)[C@H](Cc2ccc(O)cc2)NC(=O)[C@@H]2CCCN2C(=O)[C@H]2CCCN2C(=O)[C@H](CCCCN)NC(=O)[C@H](CCC(N)=O)NC(=O)[C@H](Cc2ccc(O)cc2)NC(=O)[C@@H]2CSSC[C@H](NC1=O)C(=O)N[C@@H](CCCNC(=N)N)C(=O)NCC(=O)N1CCC[C@@H]1C(=O)N[C@@H](CCCNC(=N)N)C(=O)N[C@@H](CCCNC(=N)N)C(=O)N[C@@H](Cc1ccc(O)cc1)C(=O)N2 [Ex. 145] (cyclo(YRTCRG[dP]RRYCYQK[dP]P); disulfide 4-11) | 97000 | 0.38 | 0
CSCC[C@@H]1NC(=O)[C@H](Cc2ccc(O)cc2)NC(=O)[C@@H]2CSSC[C@H](NC(=O)[C@H](CCCNC(N)=O)NC(=O)[C@H](CCCNC(=N)N)NC(=O)[C@H](Cc3ccc(O)cc3)NC(=O)[C@@H]3CCCN3C(=O)[C@H]3CCCN3C(=O)[C@H](CCCCN)NC1=O)C(=O)N[C@@H](CCCNC(=N)N)C(=O)NCC(=O)N1CCC[C@@H]1C(=O)N[C@@H](CCCNC(=N)N)C(=O)N[C@@H](CCCNC(=N)N)C(=O)N[C@@H](Cc1ccc3ccccc3c1)C(=O)N2 [Ex. 83] (cyclo(YR[Cit]CRG[dP]RR[2Nal]CYMK[dP]P); disulfide 4-11) | 48000 | 3.7 | 0.1
CN1CCN(CCCN2CC(=O)N[C@@H](Cc3ccc4ccccc4c3)C(=O)N[C@H]3CSSC[C@H](NC(=O)[C@H](CCCNC(N)=O)NC(=O)[C@H](CCCNC(=N)N)NC(=O)[C@H](Cc4ccc(O)cc4)NC(=O)[C@@H]4CCCN4C(=O)[C@H]4CCCN4C(=O)[C@H](CCCCN)NC(=O)[C@H](CCCNC(N)=O)NC(=O)[C@H](Cc4ccc(O)cc4)NC3=O)C(=O)N[C@@H](CCCNC(=N)N)C(=O)NCC(=O)N3CCC[C@@H]3C(=O)N[C@@H](CCCNC(=N)N)C2=O)CC1 [Ex. 126] (cyclo(YR[Cit]CRG[dP]R[X2][2Nal]CY[Cit]K[dP]P); disulfide 4-11) | 85000 | 19.5 | 0
N=C(N)NCCC[C@@H]1NC(=O)CNC(=O)[C@@H]2CCCN2C(=O)[C@H]2CCCN2C(=O)[C@H](CCCCN)NC(=O)[C@H](CCCNC(N)=O)NC(=O)[C@H](Cc2ccc(O)cc2)NC(=O)[C@@H]2CSSC[C@H](NC(=O)[C@H](CCCNC(N)=O)NC1=O)C(=O)N[C@@H](CCCNC(=N)N)C(=O)NCC(=O)N1CCC[C@@H]1C(=O)N[C@@H](CCCNC(=N)N)C(=O)N[C@@H](CCCNC(=N)N)C(=O)N[C@@H](Cc1ccc3ccccc3c1)C(=O)N2 [Ex. 114] (cyclo(GR[Cit]CRG[dP]RR[2Nal]CY[Cit]K[dP]P); disulfide 4-11) | 67000 | 1.3 | 0
CN1CC(=O)N[C@@H](CCCCN)C(=O)N2CCC[C@@H]2C(=O)N2CCC[C@H]2C(=O)N[C@@H](Cc2ccc(O)cc2)C(=O)N[C@@H](CCCNC(=N)N)C(=O)N[C@@H](CCCNC(N)=O)C(=O)N[C@H]2CSSC[C@H](NC(=O)[C@H](Cc3ccc4ccccc4c3)NC(=O)[C@H](CCCNC(=N)N)NC(=O)[C@H](CCCNC(=N)N)NC(=O)[C@H]3CCCN3C(=O)CNC(=O)[C@H](CCCNC(=N)N)NC2=O)C(=O)N[C@@H](Cc2ccc(O)cc2)C1=O [Ex. 129] | 23000 | 10.9 | 0
C[C@@H](O)[C@@H]1NC(=O)[C@H](CCCNC(=N)N)NC(=O)[C@H](Cc2ccc(O)cc2)NC(=O)[C@@H]2CCCN2C(=O)[C@H]2CCCN2C(=O)[C@H](CCCCN)NC(=O)[C@H](CCCNC(N)=O)NC(=O)[C@H](Cc2ccc(O)cc2)NC(=O)[C@@H]2CSSC[C@H](NC1=O)C(=O)N[C@@H](CCCNC(=N)N)C(=O)NCC(=O)N1CCC[C@@H]1C(=O)N[C@@H](CCCNC(=N)N)C(=O)N[C@@H](CCCNC(=N)N)C(=O)N[C@@H](Cc1ccc3ccccc3c1)C(=O)N2 [Ex. 131] (cyclo(YRTCRG[dP]RR[2Nal]CY[Cit]K[dP]P); disulfide 4-11) | 53000 | 2.4 | 0
N=C(N)NCCC[C@@H]1NC(=O)[C@@H]2CSSC[C@H](NC(=O)[C@H](Cc3ccc4ccccc4c3)NC(=O)[C@H](CCCNC(=N)N)NC(=O)[C@H](CCCNC(=N)N)NC(=O)[C@H]3CCCN3C(=O)CNC1=O)C(=O)N[C@@H](Cc1ccc(O)cc1)C(=O)N[C@@H](CCC(N)=O)C(=O)N[C@@H](CCCCN)C(=O)N1CCC[C@@H]1C(=O)N1CCC[C@H]1C(=O)N[C@@H](CC(=O)O)C(=O)N[C@@H](CCCNC(=N)N)C(=O)N[C@@H](CCCNC(N)=O)C(=O)N2 [Ex. 88] (cyclo(DR[Cit]CRG[dP]RR[2Nal]CYQK[dP]P); disulfide 4-11) | 44000 | 2.5 | 0
N=C(N)NCCC[C@@H]1NC(=O)[C@@H]2CSSC[C@H](NC(=O)[C@H](Cc3ccc4ccccc4c3)NC(=O)[C@H](CCCNC(=N)N)NC(=O)[C@H](CCCNC(=N)N)NC(=O)[C@H]3CCCN3C(=O)CNC1=O)C(=O)N[C@@H](Cc1ccc(O)cc1)C(=O)N[C@@H](CCC(N)=O)C(=O)N[C@@H](CCCCN)C(=O)N1CCC[C@@H]1C(=O)N1CCC[C@H]1C(=O)N[C@@H](Cc1ccc(O)cc1)C(=O)N[C@@H](CCCNC(=N)N)C(=O)N[C@@H](CC(=O)O)C(=O)N2 [Ex. 93] (cyclo(YRDCRG[dP]RR[2Nal]CYQK[dP]P); disulfide 4-11) | > 100000 | 4.3 | 0.2
C[C@@H](O)[C@@H]1NC(=O)[C@H](Cc2ccc(O)cc2)NC(=O)[C@@H]2CSSC[C@H](NC(=O)[C@H](CCCNC(N)=O)NC(=O)[C@H](CCCNC(=N)N)NC(=O)[C@H](Cc3ccc(O)cc3)NC(=O)[C@@H]3CCCN3C(=O)[C@H]3CCCN3C(=O)[C@H](CCCCN)NC1=O)C(=O)N[C@@H](CCCNC(=N)N)C(=O)NCC(=O)N1CCC[C@@H]1C(=O)N[C@@H](CCCNC(=N)N)C(=O)N[C@@H](CCCNC(=N)N)C(=O)N[C@@H](Cc1ccc3ccccc3c1)C(=O)N2 [Ex. 133] (cyclo(YR[Cit]CRG[dP]RR[2Nal]CYTK[dP]P); disulfide 4-11) | 45000 | 5.3 | 0.1
N=C(N)NCCC[C@@H]1NC(=O)[C@@H]2CSSC[C@H](NC(=O)[C@H](Cc3ccc(O)cc3)NC(=O)[C@H](CCCNC(=N)N)NC(=O)[C@H](CCCNC(=N)N)NC(=O)[C@H]3CCCN3C(=O)CNC1=O)C(=O)N[C@@H](Cc1ccc(O)cc1)C(=O)N[C@@H](CCCNC(N)=O)C(=O)N[C@@H](CCCCN)C(=O)N1CCC[C@@H]1C(=O)N1CCC[C@H]1C(=O)N[C@@H](Cc1ccc(O)cc1)C(=O)N[C@@H](CCCNC(=N)N)C(=O)N[C@@H](CCCNC(N)=O)C(=O)N2 [Ex. 112] (cyclo(YR[Cit]CRG[dP]RRYCY[Cit]K[dP]P); disulfide 4-11) | 76000 | 7.8 | 0
N=C(N)NCCC[C@@H]1NC(=O)[C@@H]2CSSC[C@H](NC(=O)[C@H](Cc3ccc4ccccc4c3)NC(=O)[C@H](CCCNC(=N)N)NC(=O)[C@H](CCCNC(=N)N)NC(=O)[C@H]3CCCN3C(=O)CNC1=O)C(=O)N[C@@H](Cc1ccc(O)cc1)C(=O)N[C@@H](CCC(N)=O)C(=O)N[C@@H](CCCCN)C(=O)N1CCC[C@@H]1C(=O)N1CCC[C@H]1C(=O)N[C@@H](CO)C(=O)N[C@@H](CCCNC(=N)N)C(=O)N[C@@H](CCCNC(N)=O)C(=O)N2 [Ex. 89] (cyclo(SR[Cit]CRG[dP]RR[2Nal]CYQK[dP]P); disulfide 4-11) | 50000 | 0.5 | 0
N=C(N)NCCC[C@@H]1NC(=O)[C@@H]2CSSC[C@H](NC(=O)[C@H](Cc3ccc4ccccc4c3)NC(=O)[C@H](CCCNC(=N)N)NC(=O)[C@H](Cc3c[nH]c4ccccc34)NC(=O)[C@H]3CCCN3C(=O)CNC1=O)C(=O)N[C@@H](Cc1ccc(O)cc1)C(=O)N[C@@H](CCC(N)=O)C(=O)N[C@@H](CCCCN)C(=O)N1CCC[C@@H]1C(=O)N1CCC[C@H]1C(=O)N[C@@H](Cc1ccc(O)cc1)C(=O)N[C@@H](CCCNC(=N)N)C(=O)N[C@@H](CCCNC(N)=O)C(=O)N2 [Ex. 55] (cyclo(YR[Cit]CRG[dP]WR[2Nal]CYQK[dP]P); disulfide 4-11) | 43000 | 6.3 | 0.1
